“Also recorded” adds a separate entry of the source.
Key:
[1] = Stability study: change in purity of solid forms after storage under different conditions; type: physicochemical; details: for Purity, Initial (Day 0): before storage; for Overall stability / degree of degradation compared with other forms: forced degradation conditions of the stability study; for Purity, Room Temperature (Day 10): stored at room temperature for 10 days; for Purity, In Light (Day 10): stored in light for 10 days
Method: Samples of the amorphous and crystalline (Forms I and II) compound of formula (I) were stored under different conditions.
Storage conditions for the crystalline form Form II: at 60° C. for 10 days; at 60° C. and 75% RH (relative humidity) for 10 days; in light for 10 days; and at room temperature for 10 days.
Storage conditions for the amorphous and crystalline (Form I) forms: at 40° C. for 10 days; at 60° C. and 75% RH for 10 days; in light for 10 days; and at room temperature for 10 days.

[2] = Hygroscopicity by dynamic vapor sorption (DVS), with XRPD before and after; type: physicochemical
[3] = cited from earlier work
[4] = stored at 60° C. and 75% RH for 10 days
[5] = stored at room temperature and in light for 10 days

Compound | Purity, Initial (Day 0) [1] | Overall stability / degree of degradation compared with other forms [1] | Purity, 40° C. (Day 10) ([1]; stored at 40° C. for 10 days) | Degradation in words ([1]; stored at 40° C. for 10 days, listed as amorphous) | Degradation in words ([1]; stored at 40° C. for 10 days, listed as amorphous compound) | Degradation in words [1, 4] | Purity, 60° C. + 75% RH (Day 10) [1, 4] | Purity, Room Temperature (Day 10) [1] | Purity, In Light (Day 10) [1] | Hygroscopicity [2] | Stability in words [1, 5] | XRPD pattern before and after the DVS determination [2] | Stability in words ([1]; degradation conditions such as high-temperature and high-humidity) | Purity, 60° C. (Day 10) ([1]; stored at 60° C. for 10 days) | 4-AAM AUC ([3]; AUC of the active metabolite 4-AAM, among the prodrugs of CN 202111131059.0) | AUC of the prodrug itself ([3]; among the prodrugs of CN 202111131059.0) | Rate of hydrolysis in blood ([3]; among the pyrazolopyrimidine ester prodrugs of CN 202111131059.0)
C=CC(=O)N1CCC[C@@H](n2nc(-c3ccc(Oc4ccccc4)cc3)c3c(NC(=O)OCCCC)ncnc32)C1 [Amorphous, 1-[(3R)-3-[4-(butoxycarbonyl)-amino-3-(4-phenoxyphenyl)-1H-pyrazolo[3,4-d]pyrimidin-1-yl]-1-piperidinyl]-2-propen-1-one] | 99.07% | poor stability | 96.10% | Noticeable degradation | Significant degradation | almost complete degradation | 0.27% | 98.01% | 98.63% |  |  |  |  |  |  |  | 
C=CC(=O)N1CCC[C@@H](n2nc(-c3ccc(Oc4ccccc4)cc3)c3c(NC(=O)OCCCC)ncnc32)C1 [Form I, 1-[(3R)-3-[4-(butoxycarbonyl)-amino-3-(4-phenoxyphenyl)-1H-pyrazolo[3,4-d]pyrimidin-1-yl]-1-piperidinyl]-2-propen-1-one] | 98.68% | lower degrees of degradation than the amorphous form | 98.60% |  |  |  | 90.62% | 98.64% | 98.62% | almost non-hygroscopic | very stable; also recorded: remaining stable |  |  |  |  |  | 
C=CC(=O)N1CCC[C@@H](n2nc(-c3ccc(Oc4ccccc4)cc3)c3c(NC(=O)OCCCC)ncnc32)C1 [Form II, 1-[(3R)-3-[4-(butoxycarbonyl)-amino-3-(4-phenoxyphenyl)-1H-pyrazolo[3,4-d]pyrimidin-1-yl]-1-piperidinyl]-2-propen-1-one] | 99.13% | lower degree of degradation than the amorphous form; also recorded: obviously better than the amorphous form and even better than Form I |  |  |  |  | 97.80% | 99.13% | 99.17% |  | more stable | remained the same | stable | 98.90% |  |  | 
C=CC(=O)N1CCC[C@@H](n2nc(-c3ccc(Oc4ccccc4)cc3)c3c(NC(=O)OCCCC)ncnc32)C1 [formula (I), 1-[(3R)-3-[4-(butoxycarbonyl)-amino-3-(4-phenoxyphenyl)-1H-pyrazolo[3,4-d]pyrimidin-1-yl]-1-piperidinyl]-2-propen-1-one] |  |  |  |  |  |  |  |  |  |  |  |  |  |  | highest | lowest | most rapidly
